From patent US12252524B2, “GIP/GLP1 co-agonist compounds” (Eli Lilly and Company, priority 2018, dated 2025) come the findings set out here.

Series [1] is described as follows: Peptide stability in 50% v/v pig small intestinal fluid with and without protease inhibitor. Type of series: in vitro ADME. As to conditions: for % peptide intact: 0 min; for remaining at 0.25 h: 15 min; for remaining at 0.25 h / remaining at 0.5 h / remaining at 1 h: read-out: % peptide intact; for remaining at 0.5 h: 30 min; for remaining at 1 h: 60 min. How it is done: A peptide is incubated at 37° C. in 1% (v/v) rat small intestinal fluid or 50% (v/v) pig small intestinal fluid with and without a peptidase inhibitor. At different time points, samples are taken out, followed by quenching with 1% TFA in 50% ACN/water to stop the enzyme activity. The intact peptide at different time points is analyzed by high-performance liquid chromatography (HPLC) equipped with an ultraviolet (UV) detector or LC-MS/MS and normalized to the amount of peptide before mixing with the enzyme solution.

Series [2] in a line: Proteolytic stability assay in 90% pig small intestinal fluid (pSIF). The format is in vitro ADME. The settings on record: 90% pSIF, 37° C. How it is done:
Peptides are diluted to a concentration of 0.4 mg/mL in 90% pig small intestinal fluid. After the mixing, 20 μL are immediately removed (time 0 for the time point of pre-incubation). The mixture is then incubated at 37° C. at 150 rpm. […] The sample is centrifuged at 20,000×g for 20 min at 4° C.
(§1) The data analysis is performed using MassLynx.

The nature of series [3]: Proteolytic stability assay in 1% rat small intestinal fluid (rSIF). The settings on record: for percentage of peptide not cleaved using rSIF: 0 min, 1% rSIF, 37° C.; for remaining at 0.05 h, 0.4 mg/mL / remaining at 0.25 h, 0.4 mg/mL / remaining at 1 h, 0.4 mg/mL: rat, real gastrointestinal fluid or homogenate, pH 8. How it is done:
The stability of peptides are compared in 1% rat small intestinal fluid (rSIF). The amount of intact peptide is measured for a sample peptide at 0, 3, 15, and 30 minutes to assess proteolytic stability. The amount of intact peptide for a sample peptide is measured in 90% pig small intestinal fluid (pSIF) at 0, 30, 45, and 60 minutes to assess the proteolytic stability.
Peptides are prepared at 0.4 mg/mL in 50 mM Tris pH8.0. […] The mixture is incubated at 37° C. at 150 rpm. Thirty μL of each sample are removed and placed into a new tube before the rSIF is added and at […]. At each time point, the reaction was quenched by 1% TFA in 50% ACN at 1:1. The samples are diluted 100 times using dilution buffer (1:1 of 1% TFA in 50% ACN: 50 mM Tris pH8) and ready for analysis using mass spectrometry (MS).
as §1

Series [4] is described as follows: in vivo. The settings on record: male, CD-1, mouse, plasma, sc, 200 nmol/kg.
Procedure: (§2) The pharmacokinetics of select Examples are evaluated following a single subcutaneous administration of 200 nMol/kg to male CD-1 mice. […] Plasma (K3 EDTA) concentrations are determined using a qualified LC/MS method that measures the intact mass of the Examples. […] Instruments are combined for LC/MS detection.
For series [5] the following is noted: single subcutaneous 50 nMol/kg, male Sprague Dawley rats; mean (SD).
Procedure: The pharmacokinetics of select Examples are evaluated following a single subcutaneous (SC) administration of 50 nMol/kg (dissolved in PBS, pH 7.4) or single 1 μmol/kg (mixed with 250 mM sodium decanoate (“C10”) and 12 mg/mL soybean trypsin inhibitor (SBTI)) intrajejunal (IJ) administration to male Sprague Dawley rats. […] Pharmacokinetic parameters are calculated using individual plasma concentrations. A qualified LC/MS method that measures the intact mass of the Example is used to determine plasma (K3 EDTA) concentrations. Each Example is tested with an analog peptide as an internal standard. Immunoaffinity based precipitation with anti-GIP/GLP1 antibodies is used to extract each test peptide and analog.
The conditions of series [6]: single subcutaneous 200 nMol/kg, male CD-1 mice.
Procedure: as §2
Series [7] is described as follows: in vivo. As to conditions: male, cynomolgus monkey, plasma, sc, 50 nmol/kg.
Procedure: Pharmacokinetics in male Cynomolgus Monkeys The pharmacokinetics of select Examples are evaluated following a single subcutaneous administration of 50 nMol/kg to male cynomolgus monkeys. […] Peptide plasma (K3 EDTA) concentrations are determined using a qualified LC/MS method that measured the intact mass of the compound. […] Instruments are combined for LC/MS detection.
Where [8] appears, read: pH 8, with rSBTI (5 mg/mL), protease inhibitor, rSBTI (5 mg/mL).

Molecules are shown by their SMILES. Where two headings read alike, the source gives them in different places. Numbered stars: 1 amine (or outer) side, 2 acyl side, 3 side chain; on linkers, the order of the positions; unused ones are H or OH. Square brackets hold non-standard residues; d marks the D form. Side chains are listed from the residue outwards. Peptide text beside a SMILES is read from it. * marks the point of attachment. C20 diacid = O=C(O)CCCCCCCCCCCCCCCCCCC(=O)*; αMePhe(2-F) = C[C@](N)(Cc1ccccc1F)C(=O)O; γGlu = O=C(O)[C@H](CCC(=O)[*:2])N[*:1]; αMeL = CC(C)C[C@](C)(N)C(=O)O; AEEA = NCCOCCOCC(=O)O; Aib = CC(C)(N)C(=O)O

As for `CC[C@H](C)[C@H](NC(=O)[C@H](CC(C)C)NC(=O)[C@](C)(Cc1ccc(O)cc1)NC(=O)[C@@H](CCC(=O)O)NC(=O)[C@@H](NC(=O)[C@H](Cc1ccccc1)NC(=O)[C@H](CCC(=O)O)NC(=O)C(C)(C)NC(=O)[C@H](CCC(N)=O)NC(=O)[C@H](C)NC(=O)[C@H](CCCCNC(=O)COCCOCCNC(=O)COCCOCCNC(=O)CC[C@H](NC(=O)CCCCCCCCCCCCCCCCC(=O)O)C(=O)O)NC(=O)[C@H](CCCN)NC(=O)[C@H](CC(=O)O)NC(=O)[C@H](CC(C)C)NC(=O)[C@](C)(CC(C)C)NC(=O)[C@@H](NC(=O)[C@H](CO)NC(=O)[C@H](Cc1ccncc1)NC(=O)[C@H](CC(=O)O)NC(=O)[C@H](CO)NC(=O)[C@@H](NC(=O)[C@](C)(Cc1ccccc1F)NC(=O)[C@@H](NC(=O)CNC(=O)[C@H](CCC(=O)O)NC(=O)C(C)(C)NC(=O)[C@@H](N)Cc1ccc(O)cc1)[C@@H](C)O)[C@@H](C)O)[C@@H](C)CC)[C@@H](C)CC)C(=O)N[C@@H](CCC(=O)O)C(=O)NCC(=O)NCC(=O)N1CCC[C@H]1C(=O)N[C@@H](CO)C(=O)N[C@@H](CO)C(=O)NCC(=O)N[C@@H](C)C(=O)N1CCC[C@H]1C(=O)N1CCC[C@H]1C(=O)N1CCC[C@H]1C(=O)N[C@@H](CO)C(N)=O` [Example 4], the “% peptide intact” value in series [1] (no PI, control) was 100.00%. In addition, in series [1] (pH 8, no PI, control), the remaining at 0.25 h was 72.5%, the remaining at 0.5 h was determined as 41.4% and the remaining at 1 h worked out at 19%. For the same compound, in series [1] (setting [8]), the remaining at 0.25 h worked out at 97%, the remaining at 0.5 h came out at 96.3% and the remaining at 1 h was determined as 88.6%. In addition, the “% peptide intact” value in series [1] (rSBTI (5 mg/mL)) worked out at 100.00%. Further, the “percentage of peptide not cleaved using pSIF” value in series [2] (0 min) is 100%. Further, the remaining at 0.5 h, 0.4 mg/mL in series [2] (pig, 90% pig small intestinal fluid (pSIF), 30 min, read-out: percentage of peptide not cleaved using pSIF) worked out at 73.4%. The remaining at 0.75 h, 0.4 mg/mL in series [2] (pig, 90% pig small intestinal fluid (pSIF), 45 min, read-out: percentage of peptide not cleaved using pSIF) was determined as 56.4%. In series [2] (pig, 90% pig small intestinal fluid (pSIF), 60 min, read-out: percentage of peptide not cleaved using pSIF), the remaining at 1 h, 0.4 mg/mL turned out to be 60%. For the same compound, in series [3], the “percentage of peptide not cleaved using rSIF” value is 100%; the remaining at 0.05 h, 0.4 mg/mL was 97.9%; the remaining at 0.25 h, 0.4 mg/mL came out at 99.3%; the remaining at 1 h, 0.4 mg/mL worked out at 89.4%.

As usually defined, the CL/F is clearance divided by bioavailability, as obtained after extravascular dosing. What is called Tmax is the time at which the peak concentration occurs. In general, half-life refers to the time needed for the level to fall by half in the phase considered. Read a low half-life as rapid decline. Turning to `CC[C@H](C)[C@H](NC(=O)[C@H](CC(C)C)NC(=O)[C@H](Cc1ccc(O)cc1)NC(=O)[C@@H](CCC(=O)O)NC(=O)[C@@H](NC(=O)[C@H](Cc1ccccc1)NC(=O)[C@H](CCC(=O)O)NC(=O)C(C)(C)NC(=O)[C@H](CCC(N)=O)NC(=O)[C@H](C)NC(=O)[C@H](CCCCNC(=O)COCCOCCNC(=O)COCCOCCNC(=O)CC[C@H](NC(=O)CCCCCCCCCCCCCCCCCCC(=O)O)C(=O)O)NC(=O)[C@H](CCCN)NC(=O)[C@H](CC(=O)O)NC(=O)[C@H](CC(C)C)NC(=O)[C@](C)(CC(C)C)NC(=O)[C@@H](NC(=O)[C@H](CO)NC(=O)[C@H](Cc1ccc(O)cc1)NC(=O)[C@H](CC(=O)O)NC(=O)[C@H](CO)NC(=O)[C@@H](NC(=O)[C@](C)(Cc1ccccc1F)NC(=O)[C@@H](NC(=O)CNC(=O)[C@H](CCC(=O)O)NC(=O)C(C)(C)NC(=O)[C@@H](N)Cc1ccc(O)cc1)[C@@H](C)O)[C@@H](C)O)[C@@H](C)CC)[C@@H](C)CC)C(=O)N[C@@H](CCC(=O)O)C(=O)NCC(=O)NCC(=O)N1CCC[C@H]1C(=O)N[C@@H](CO)C(=O)N[C@@H](CO)C(=O)NCC(=O)N[C@@H](C)C(=O)N1CCC[C@H]1C(=O)N1CCC[C@H]1C(=O)N1CCC[C@H]1C(=O)N[C@@H](CO)C(N)=O` [Example 3], in series [4], the apparent clearance CL/F is 6.31 mL/h/kg, the Tmax was found to be 6 h and the half-life is 15 h. Moreover, in series [5], the AUCINF_D_obs is 371.8 (21.8) hr*kg*nmol/L/nmol and the Cmax/D was 4.71 (0.50) kg*nmol/L/nmol. For the same compound, in series [3], the “percentage of peptide not cleaved using rSIF” value is reported as 100%; the remaining at 0.05 h, 0.4 mg/mL was found to be 68.8%; the remaining at 0.25 h, 0.4 mg/mL stood at 25.8%; the remaining at 1 h, 0.4 mg/mL amounted to 0.3%. In series [6], this compound displayed an AUCINF_D_obs of 158.49 hr*kg*nmol/L/nmol and a Cmax/D of 4.42 kg*nmol/L/nmol. In series [7], the apparent clearance CL/F is 0.29 mL/h/kg, the Tmax was found to be 30 h and the half-life was 181 h.

As for `CC[C@H](C)[C@H](NC(=O)[C@H](CC(C)C)NC(=O)[C@H](Cc1ccc(O)cc1)NC(=O)[C@@H](CCC(=O)O)NC(=O)[C@@H](NC(=O)[C@H](Cc1ccccc1)NC(=O)[C@H](CCC(=O)O)NC(=O)C(C)(C)NC(=O)[C@H](CCC(N)=O)NC(=O)[C@H](C)NC(=O)[C@H](CCCCNC(=O)COCCOCCNC(=O)COCCOCCNC(=O)CC[C@H](NC(=O)CCCCCCCCCCCCCCCCCCC(=O)O)C(=O)O)NC(=O)[C@H](CCC(=O)O)NC(=O)[C@H](CC(=O)O)NC(=O)[C@H](CC(C)C)NC(=O)[C@](C)(CC(C)C)NC(=O)[C@@H](NC(=O)[C@H](CO)NC(=O)[C@H](Cc1ccc(O)cc1)NC(=O)[C@H](CC(=O)O)NC(=O)[C@H](CO)NC(=O)[C@@H](NC(=O)[C@](C)(Cc1ccccc1F)NC(=O)[C@@H](NC(=O)CNC(=O)[C@H](CCC(=O)O)NC(=O)C(C)(C)NC(=O)[C@@H](N)Cc1ccc(O)cc1)[C@@H](C)O)[C@@H](C)O)[C@@H](C)CC)[C@@H](C)CC)C(=O)N[C@@H](CCC(=O)O)C(=O)NCC(=O)NCC(=O)N1CCC[C@H]1C(=O)N[C@@H](CO)C(=O)N[C@@H](CO)C(=O)NCC(=O)N[C@@H](C)C(=O)N1CCC[C@H]1C(=O)N1CCC[C@H]1C(=O)N1CCC[C@H]1C(=O)N[C@@H](CO)C(N)=O` [Example 1] (H-Y[Aib]EGT[αMePhe(2-F)]TSDYSI[αMeL]LDEK([AEEA-AEEA-γGlu-C20 diacid])AQ[Aib]EFI[dE]YLIEGGPSSGAPPPS-NH2), in series [4], the CL/F was 7.37 mL/h/kg, the Tmax is 12 h and the half-life was 17.5 h. Besides, in series [5], the AUCINF_D_obs is given as 294.2 (30.0) hr*kg*nmol/L/nmol and the Cmax/D is 3.34 (0.22) kg*nmol/L/nmol. Moreover, in series [3], the “percentage of peptide not cleaved using rSIF” value worked out at 100%; the remaining at 0.05 h, 0.4 mg/mL stood at 82.4%; the remaining at 0.25 h, 0.4 mg/mL came out at 41.4%; the remaining at 1 h, 0.4 mg/mL came out at 1.6%. In series [6], this compound yielded an AUCINF_D_obs of 135.61 hr*kg*nmol/L/nmol and a Cmax/D of 4.84 kg*nmol/L/nmol. In addition, in series [7], the CL/F is 0.69 mL/h/kg, the Tmax was 18 h and the half-life is 125 h.
